The results in this text go back to PubChem BioAssay AID248 (DTP/NCI, 2004).

Molecules are shown by their SMILES. Values joined by “and” are separate entries in the source; they are usually repeats but may differ in a detail not shown here. Identical values can stand only once. Inconclusive results and toxic doses are left out.

For this test, the system named is L1210 leukemia ip in BDF1 mice, survival T/C. As to the kind of experiment: NCI In Vivo Anticancer Drug Screen. Data for tumor model L1210 Leukemia (intraperitoneal) in B6D2F1 (BDF1) mice. As to conditions: endpoint: mean survival time, higher = longer survival. Here is the method:
The antitumor activity of compounds was measured in mice bearing transplantable tumors. Survival or tumor size were measured and the results are expressed as the measurement made in the treated group (T) divided by the measurement made in the vehicle treated control group (C). The tumor model used in this assay is L1210 Leukemia (intraperitoneal) in B6D2F1 (BDF1) mice

Where [1] appears, read: dose: 100.0 mg/kg/injection, schedule: Q01DX009 (ip), vehicle: saline.
Where [2] appears, read: dose: 100.0 mg/kg/injection, schedule: Q04DX003 (ip), vehicle: saline.
Where [3] appears, read: dose: 200.0 mg/kg/injection, schedule: Q01DX009 (ip), vehicle: saline.
[4] abbreviates: dose: 200.0 mg/kg/injection, schedule: Q04DX003 (ip), vehicle: saline.
Setting [5] is: dose: 100.0 mg/kg/injection, schedule: Q01DX009 (ip), vehicle: Klucel (hydroxypropylcellulose) (HPC).
The mark [6] stands for this setting: dose: 200.0 mg/kg/injection, schedule: Q01DX009 (ip), vehicle: Klucel (hydroxypropylcellulose) (HPC).
Setting [7] is: dose: 400.0 mg/kg/injection, schedule: Q01DX009 (ip), vehicle: Klucel (hydroxypropylcellulose) (HPC).
[8] abbreviates: dose: 50.0 mg/kg/injection, schedule: Q01DX009 (ip), vehicle: saline with Tween-80.
Where [9] appears, read: dose: 100.0 mg/kg/injection, schedule: Q01DX001 (ip), vehicle: saline with Tween-80.
Where [10] appears, read: dose: 100.0 mg/kg/injection, schedule: Q01DX009 (ip), vehicle: saline with Tween-80.
[11] abbreviates: dose: 100.0 mg/kg/injection, schedule: Q04DX003 (ip), vehicle: saline with Tween-80.
Setting [12] is: dose: 200.0 mg/kg/injection, schedule: Q01DX001 (ip), vehicle: saline with Tween-80.
The mark [13] stands for this setting: dose: 200.0 mg/kg/injection, schedule: Q01DX009 (ip), vehicle: saline with Tween-80.
[14] abbreviates: dose: 200.0 mg/kg/injection, schedule: Q04DX003 (ip), vehicle: saline with Tween-80.
[15] abbreviates: dose: 400.0 mg/kg/injection, schedule: Q04DX003 (ip), vehicle: saline with Tween-80.
Where [16] appears, read: dose: 400.0 mg/kg/injection, schedule: Q04DX002 (ip), vehicle: saline with Tween-80.

As for `O=C1CCCCc2nn(c3ccccc23)C(=O)CCCCc2nn1c1ccccc21`, the T/C was 90 % of control (dose: 25.0 mg/kg/injection, schedule: Q04DX002 (ip), vehicle: Klucel (hydroxypropylcellulose) (HPC)); 97 % of control (dose: 50.0 mg/kg/injection, schedule: Q04DX002 (ip), vehicle: Klucel (hydroxypropylcellulose) (HPC)); 93 % of control (dose: 100.0 mg/kg/injection, schedule: Q04DX002 (ip), vehicle: Klucel (hydroxypropylcellulose) (HPC)).
Consider `O=C1OC(=O)C(Br)=C1Br`, for which the T/C (dose: 25.0 mg/kg/injection, schedule: Q04DX002 (ip), vehicle: saline) is 101 % of control; the T/C (dose: 50.0 mg/kg/injection, schedule: Q01DX009 (ip), vehicle: saline) is 94 % of control; the T/C (dose: 50.0 mg/kg/injection, schedule: Q04DX002 (ip), vehicle: saline) is 97 % of control; the T/C under setting [1] is 91 % of control; the T/C (dose: 100.0 mg/kg/injection, schedule: Q04DX002 (ip), vehicle: saline) was 97 % of control; the T/C under setting [2] is 95 % of control. Further, the T/C under setting [3] was 107 % of control; the T/C (dose: 200.0 mg/kg/injection, schedule: Q04DX002 (ip), vehicle: saline) was 93 % of control and 103 % of control; the T/C under setting [4] was 98 % of control.
For the compound `COC(=O)c1ccc(F)cc1`, the T/C (dose: 50.0 mg/kg/injection, schedule: Q01DX001 (ip), vehicle: carboxymethylcellulose (CMC)) is 92 % of control; the T/C (dose: 100.0 mg/kg/injection, schedule: Q01DX001 (ip), vehicle: carboxymethylcellulose (CMC)) was 97 % of control; the T/C (dose: 200.0 mg/kg/injection, schedule: Q01DX001 (ip), vehicle: carboxymethylcellulose (CMC)) was 97 % of control; the T/C (dose: 400.0 mg/kg/injection, schedule: Q01DX001 (ip), vehicle: carboxymethylcellulose (CMC)) was 95 % of control.
With `Nc1ccc2c(c1)Cc1cc(Br)ccc1-2`, the T/C reads like this: under setting [5], 103 % of control; (dose: 100.0 mg/kg/injection, schedule: Q04DX003 (ip), vehicle: Klucel (hydroxypropylcellulose) (HPC)) 96 % of control; under setting [6], 101 % of control; (dose: 200.0 mg/kg/injection, schedule: Q04DX003 (ip), vehicle: Klucel (hydroxypropylcellulose) (HPC)) 102 % of control; under setting [7], 101 % of control; (dose: 400.0 mg/kg/injection, schedule: Q04DX003 (ip), vehicle: Klucel (hydroxypropylcellulose) (HPC)) 108 % of control.
As to `N#COc1cccc(OCCOc2cccc(OC#N)c2)c1`, the T/C by setting is: under setting [8], 99 % of control; (dose: 50.0 mg/kg/injection, schedule: Q04DX003 (ip), vehicle: saline with Tween-80) 97 % of control; under setting [9], 89 % of control; under setting [10], 94 % of control; under setting [11], 90 % of control; under setting [12], 87 % of control. Moreover, the T/C was 100 % of control under setting [13] and 87 % of control under setting [14].
In the case of `Cc1ccc(S(=O)(=O)Oc2ccccc2NC(=O)c2ccccc2)cc1`, the T/C under setting [8] was 96 % of control and the T/C under setting [10] was 96 % of control.
As to `CSCCCNC(=O)c1csc(CCNC(=O)c2ccccc2)n1`, the T/C is, setting by setting: under setting [11], 100 % of control; under setting [14], 100 % of control; under setting [15], 91 % of control.
As to `C[n+]1ccccc1/C=C/c1ccc2cccc(O)c2n1`, the T/C is 95 % of control (dose: 2.0 mg/kg/injection, schedule: Q01DX015 (ip), vehicle: saline); 95 % of control (dose: 4.0 mg/kg/injection, schedule: Q01DX015 (ip), vehicle: saline); 94 % of control (dose: 8.0 mg/kg/injection, schedule: Q01DX015 (ip), vehicle: saline); 101 % of control (dose: 16.0 mg/kg/injection, schedule: Q01DX015 (ip), vehicle: saline); 97 % of control (dose: 32.0 mg/kg/injection, schedule: Q01DX015 (ip), vehicle: saline); 102 % of control (dose: 75.0 mg/kg/injection, schedule: Q01DX001 (ip), vehicle: saline).
Consider `O=[N+]([O-])c1cccc(Oc2ncccc2[N+](=O)[O-])c1`, for which the T/C is 95 % of control under setting [5]; 105 % of control (dose: 100.0 mg/kg/injection, schedule: Q04DX003 (ip), vehicle: other); 102 % of control under setting [6]; 103 % of control (dose: 200.0 mg/kg/injection, schedule: Q04DX003 (ip), vehicle: other); 94 % of control under setting [7]; 100 % of control (dose: 400.0 mg/kg/injection, schedule: Q04DX003 (ip), vehicle: other).
Regarding `c1ccc([Si]2(c3ccccc3)[Si](c3ccccc3)(c3ccccc3)[Si](c3ccccc3)(c3ccccc3)[Si](c3ccccc3)(c3ccccc3)[Si](c3ccccc3)(c3ccccc3)[Si]2(c2ccccc2)c2ccccc2)cc1`, the T/C by setting is: under setting [11], 102 % of control; (dose: 160.0 mg/kg/injection, schedule: Q04DX002 (ip), vehicle: saline with Tween-80) 86 % of control; under setting [14], 94 % of control; under setting [16], 86 % of control; under setting [15], 96 % of control.
Consider `NC(CSS(=O)(=O)O)=NCC1CC2CCC1C2` (configuration not stated), for which the T/C is 100 % of control (dose: 6.25 mg/kg/injection, schedule: Q04DX002 (ip), vehicle: saline with Tween-80); 110 % of control (dose: 12.5 mg/kg/injection, schedule: Q04DX002 (ip), vehicle: saline with Tween-80); 106 % of control (dose: 25.0 mg/kg/injection, schedule: Q04DX002 (ip), vehicle: saline with Tween-80).
Consider `CCOC(=O)c1ccc(NC(=O)N(C2CCCCC2)C2CCCCC2)cc1`, for which the T/C was 86 % of control under setting [9]; 101 % of control under setting [10]; 103 % of control and 90 % of control (dose: 100.0 mg/kg/injection, schedule: Q04DX002 (ip), vehicle: saline with Tween-80); 86 % of control under setting [12]; 92 % of control under setting [13]; 94 % of control (dose: 200.0 mg/kg/injection, schedule: Q04DX002 (ip), vehicle: saline with Tween-80). The T/C by setting is: under setting [14], 94 % of control; (dose: 400.0 mg/kg/injection, schedule: Q01DX001 (ip), vehicle: saline with Tween-80) 93 % of control; (dose: 400.0 mg/kg/injection, schedule: Q01DX009 (ip), vehicle: saline with Tween-80) 101 % of control; under setting [16], 94 % of control and 90 % of control; under setting [15], 91 % of control.
For `CCCCOc1c(OCCCC)c(=O)c1=O`, the T/C is 106 % of control (dose: 178.0 mg/kg/injection, schedule: Q01DX001 (ip), vehicle: saline) and 106 % of control (dose: 267.0 mg/kg/injection, schedule: Q01DX001 (ip), vehicle: saline).
For `C1=Cc2ccccc2/C1=C/c1ccc(/C=C2\C=Cc3ccccc32)cc1`, the T/C is 92 % of control under setting [11], 89 % of control under setting [14] and 89 % of control under setting [15].
Consider `[O-][N+]1=CCCC1`, for which the T/C by setting is: under setting [1], 89 % of control; under setting [2], 104 % of control; under setting [3], 91 % of control; under setting [4], 107 % of control; (dose: 400.0 mg/kg/injection, schedule: Q01DX009 (ip), vehicle: saline) 92 % of control; (dose: 400.0 mg/kg/injection, schedule: Q04DX003 (ip), vehicle: saline) 105 % of control.
On to `COc1cc(C(=O)NC(CCC(=O)O)C(=O)O)ccc1N(C)Cc1cnc2nc(N)nc(N)c2n1` (configuration not stated), for which the T/C is, setting by setting: (dose: 6.25 mg/kg/injection, schedule: Q01DX009 (ip), vehicle: sodium bicarbonate) 154 % of control; (dose: 25.0 mg/kg/injection, schedule: Q01DX009 (ip), vehicle: sodium bicarbonate) 178 % of control.
Regarding `Oc1c(C(c2ccccc2)N2CCCC2)ccc2ccccc12` (configuration not stated), the T/C is, setting by setting: (dose: 75.0 mg/kg/injection, schedule: Q04DX003 (ip), vehicle: saline with Tween-80) 100 % of control; (dose: 150.0 mg/kg/injection, schedule: Q04DX003 (ip), vehicle: saline with Tween-80) 92 % of control; (dose: 300.0 mg/kg/injection, schedule: Q04DX003 (ip), vehicle: saline with Tween-80) 96 % of control.
